From BindingDB's records for PubMed 2156995 (Rhone-Poulenc Sante, 1990) come the findings set out here.

Structures are written as SMILES. pKi: −log10 of the molar value. “And” between values parts separate entries of the source, which are not always exact repeats. Equal entries are not always repeated.

The target of the assay is Platelet-activating factor receptor (Homo sapiens, UniProt P25105).
Chain of Platelet-activating factor receptor (P25105 whole entry): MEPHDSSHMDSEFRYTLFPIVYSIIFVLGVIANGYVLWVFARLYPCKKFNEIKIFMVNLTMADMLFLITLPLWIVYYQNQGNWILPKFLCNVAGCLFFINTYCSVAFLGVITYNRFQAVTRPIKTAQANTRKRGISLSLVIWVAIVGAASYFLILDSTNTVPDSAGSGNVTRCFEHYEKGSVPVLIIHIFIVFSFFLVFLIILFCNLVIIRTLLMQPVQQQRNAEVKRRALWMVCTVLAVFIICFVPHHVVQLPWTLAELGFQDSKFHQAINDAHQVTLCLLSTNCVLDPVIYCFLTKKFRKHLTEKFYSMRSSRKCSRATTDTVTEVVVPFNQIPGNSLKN

The term pKi denotes the Ki on a negative log10 scale, so that one unit is a factor of ten. Read a high pKi as a low Ki. Regarding `CCCCCCCCCCCCCCCCCCNC(=O)OCC1CCC(COP(=O)([O-])OCC[n+]2cccc3ccccc32)O1` (centres undefined) [NSC_108044], the pKi is 6.89.
As for `Cc1nnc2n1-c1sc(Br)cc1C(c1ccccc1Cl)=NC2` [2-Bromo-4-(2-chloro-phenyl)-9-methyl-6H-1-thia-5,7,8,9a-tetraaza-cyclopenta[e]azulene], the pKi was 7.09 and 7.76.
`C[C@@H]1C(=O)O[C@H]2[C@H](O)C34[C@H]5C[C@@H](C(C)(C)C)C36C(O)C(=O)O[C@H]6O[C@@]4(C(=O)O5)[C@@]12O` (some centres undefined) [BN 52021]: the negative logarithm of the Ki (pKi) is 6.02 and 6.19.
The result for `CCCCCCCCCCCCCCCCCCNC(=O)OCC(COCCCC[n+]1ccsc1)OC(=O)OC` (centres undefined) [CAS_129364] reads 7.41 and 7.77.
